Patent publication US5935966A, “Pyrimidine carboxylates and related compounds and methods for treating inflammatory conditions” (Signal Pharmaceuticals, Inc., priority 1996, dated 1999)

What follows are compounds tested on NFκB and AP-1 (assay: NFκB and AP-1 luciferase reporter assays in stable Jurkat T-cells (PMA/PHA stimulated)). Settings: Homo sapiens, average of NFκB and AP-1 assays, read-out: ICm (average of the measurements obtained from the NFκB and AP-1 assays).
Assay type: cell-based, human
From the text: Stable human Jurkat T-cells containing an NFκB binding site (from the MHC promoter) fused to a minimal SV-40 promoter driving luciferase expression were used in this experiment. Cells were split to 3×10^5 cells/mL every 2-3 days (cell concentration should not exceed 1×10^6 cells/mL to keep the cells proliferating in log phase). These cells were counted, resuspended in fresh medium containing 10% Serum-Plus at a density of 1×10^6 cells/mL and plated in 96 well round bottom plates (200 μ.LAMBDA. per well) 18 hours prior to starting the experiment.
Compounds of this invention, dissolved in dimethyl sulfoxide (3.3, 0.33 and 0.03 μg/mL), were then added to the 96 well plates containing the cells and the plates were incubated for 0.5 h at 37° C. Then 50 ng/mL of phorbol 12-myristate-13-acetate (PMA) and 1 μg/mL of phytohemagglutinin (PHA) were added to each well and the cells were incubated for an additional 5 h at 37° C. The plates were centrifuged at 2200 RPM for 3 minutes at room temperature and then the medium was removed. To each well was added 60 μL of cell lysis buffer and the plates were left at room temperature for 0.25 h. Then 40 μL of each cell extract was transferred to a black 96 well plate and 50 μL of luciferase substrate buffer was added. Luminescence was immediately measured using a Packard TopCount.
For AP-1, the assay was run as described above for NFκB except stable Jurkat T-cells were used that contained a collagenase promoter driving luciferase expression. In addition, the concentration of PMA used was 5 ng/mL.
The IC50 values reported in Table 3 are the average of the measurements obtained from the NFκB and AP-1 assays described above.

IC50 [nM]	Compound
200	CC1=CC(=O)N(Nc2ncc(C(=O)OC(C)(C)C)c(C(F)(F)F)n2)C1=O [Example 79, t-BUTYL 2-[N-(1'-AMINOCITRACONAMIDO)]-4-TRIFLUOROMETHYLPYRIMIDINE-5-CARBOXYLATE]
17000	CCOC(=O)c1cnc(C)nc1NN1C(=O)C=C(C)C1=O [Example 118, ETHYL 4-[N-(1'-AMINOCITRACONAMIDO)]-2-METHYLPYRIMIDINE-5-CARBOXYLATE]
1000	COCc1cnc(NN2C(=O)C=C(C)C2=O)nc1C(F)(F)F [Example 113, 2-[N-(1'-AMINOCITRACONAMIDO)]-5-(METHOXYMETHYL)-4-TRIFLUOROMETHYLPYRIMIDINE]
800	CCOC(=O)c1cnc(-c2cccs2)nc1N(C)N1C(=O)C=C(C)C1=O [Example 123, ETHYL 4-[N-(1'-AMINOCITRACONAMIDO)-N-METHYL]-2-(2'-THIENYL)-PYRIMIDINE-5-CARBOXYLATE]
6000	CCOC(=O)c1cnc(NN2C(=O)C=C(C)C2=O)nc1COC [Example 98, ETHYL 2-[N-(1'-AMINOCITRACONAMIDO)]-4-METHOXYMETHYL PYRIMIDINE-5-CARBOXYLATE]
1100	CCOC(=O)OCc1cnc(NN2C(=O)C=C(C)C2=O)nc1C(F)(F)F [Example 114, 2-[N-(1'-AMINOCITRACONAMIDO)]-5-(ETHOXYMETHYLCARBONATE)-4-TRIFLUOROMETHYLPYRIMIDINE]
5000	CCOC(=O)c1cnc(N(C)N2C(=O)C=C(C)C2=O)nc1C(F)(F)F [Example 42, ETHYL 2-[N-(1'-AMINOCITRACONAMIDO)-N-METHYL]-4-TRIFLUOROMETHYLPYRIMIDINE-5-CARBOXYLATE]
1300	COC(=O)c1cnc(NN2C(=O)C=C(C)C2=O)nc1C(F)(F)C(F)(F)F [Example 77, METHYL 2-[N-(1'-AMINOCITRACONAMIDO)]-4-PENTAFLUOROETHYLPYRIMIDINE-5-CARBOXYLATE]
250	CC1=CC(=O)N(Nc2nc(-c3cccs3)ncc2-c2nnc(C)o2)C1=O [Example 142, 4-[N-(1'-AMINOCITRACONAMIDO)]-5-(5"-METHYL-1",3",4"-OXADIAZOL-2"-YL)-2-(2'"-THIENYL)PYRIMIDINE]
400	CCOC(=O)c1cnc(N(C)N2C(=O)C=C(C)C2=O)nc1C(F)(F)C(F)(F)F [Example 103, ETHYL-2-[N-(1'-AMINOCITRACONAMIDO)-N-METHYL]-4-PENTAFLUOROETHYLPYRIMIDINE-5-CARBOXYLATE]
400	CCOC(=O)c1cnc(-c2ccc(C(F)(F)F)cc2)nc1NN1C(=O)C=C(C)C1=O [Example 121, ETHYL 4-[N-(1'-AMINOCITRACONAMIDO)]-2-(4'-TRIFLUOROMETHYLPHENYL)PYRIMIDINE-5-CARBOXYLATE]
150	COC(=O)c1cnc(N(C)N2C(=O)C=C(C)C2=O)nc1C(F)(F)C(F)(F)F [Example 78, METHYL 2-[N-(1'-AMINOCITRACONAMIDO)]-N-METHYL]-4-PENTAFLUOROETHYLPYRMIDINE-5-CARBOXYLATE]
100	COC(=O)c1cnc(N(C)N2C(=O)C=C(C)C2=O)nc1C(F)(F)F [Example 81, METHYL 2-[N-(1'-AMINOCITRACONAMIDO)-N-METHYL]-4-TRIFLUOROMETHYLPYRIMIDINE-5-CARBOXYLATE]
600	CCc1nc(N(C)N2C(=O)C=C(C)C2=O)ncc1COC [Example 112, 2-[N-(1'-AMINOCITRACONAMIDO)-N-METHYL]-4-ETHYL-5-(METHOXYMETHYL)PYRIMIDINE]
400	CCc1nc(N(C)N2C(=O)C=C(C)C2=O)ncc1C(=O)c1ccccc1 [Example 102, 5-BENZOYL 2-[N-(1'-AMINOCITRACONAMIDO)-N-METHYL]-4-ETHYLPYRIMIDINE]
50	CCOC(=O)c1cnc(N(C)N2C(=O)C=C(C)C2=O)nc1CC [Example 73, ETHYL 2-[N-(1'-AMINOCITRACONAMIDO)-N-METHYL]-4-ETHYLPRYRIMIDINE-5-CARBOXYLATE]
400	CCOC(=O)c1cnc(N(C)N2C(=O)C=C(C)C2=O)nc1-c1ccc(Cl)s1 [Example 68, ETHYL 2-[N-(1'-AMINOCITRACONAMIDO)-N-METHYL]-4-[2'-(5"-HLOROTHIENYL]PYRIMIDINE-5-CARBOXYLATE]
300	CCCC(=O)N(c1ncc(C(=O)OCC)c(C(F)(F)F)n1)N1C(=O)C=C(C)C1=O [Example 95, ETHYL 2-[N-(1'-AMINOCITRACONAMIDO-N-BUTANOYL)]-4-TRIFLUOROMETHYLPYRIMIDINE-5-CARBOXYLATE]
2400	CCOC(=O)c1cnc(NN2C(=O)C=C(C)C2=O)nc1-c1nccs1 [Example 105, ETHYL 2-[N-(1'-AMINOCITRACONAMIDO)]-4-(2'-THIAZOLYL)PYRIMIDINE-5-CARBOXYLATE]
60	CCOC(=O)c1cnc(NN2C(=O)C=C(C)C2=O)nc1-c1ccc(C)s1 [Example 90, ETHYL 2-[N-(1'-AMINOCITRACONAMIDO)]-4-[2'-(5'-METHYLTHIENYL)]PYRIMIDINE-5-CARBOXYLATE]
4000	CCOC(=O)c1cnc(-c2ccccc2)nc1N(C(C)=O)N1C(=O)C=C(C)C1=O [Example 117, ETHYL 4-[N-ACETYL-N-(1'-AMINOCITRACONAMIDO)]-2-PHENYLPYRIMIDINE-5-CARBOXYLATE]
700	CCOC(=O)c1cnc(N(C(=O)NC)N2C(=O)C=C(C)C2=O)nc1C(F)(F)F [Example 96, ETHYL 2-[N-(1'-AMINOCITRACONAMIDO)-N-(N'-METHYLCARBOXAMIDYL)]-4-TRIFLUOROMETHYLPYRIMIDINE-5-CARBOXYLATE]
1000	CCc1nc(N(C)N2C(=O)C=C(C)C2=O)ncc1-c1nc(C)co1 [Example 126, 2-[N-(1'-AMINOCITRACONAMIDO)-N-METHYL]-4-ETHYL-5-[2"-(4"-METHYL)OXAZOLYL]PYRIMIDINE]
1400	CCOC(=O)c1cnc(-c2ccccc2)nc1N(C)N1C(=O)C=C(C)C1=O [Example 116, ETHYL-4-[N-(1'-AMINOCITRACONAMIDO)-N-METHYL]-2-PHENYLPYRIMIDINE-5-CARBOXYLATE]
450	CCCc1nc(N(C(C)=O)N2C(=O)C=C(C)C2=O)ncc1C(=O)OCC [Example 74, ETHYL 2-[N-ACETYL-N-(1'-AMINOCITRACONAMIDO)]-4-PROPYLPYRIMIDINE-5-CARBOXYLATE]
310	CC1=CC(=O)N(Nc2nc(-c3cccs3)ncc2-c2nc(C)co2)C1=O [Example 137, 4-[N-(1'-AMINOCITRACONAMIDO)]-5-(4"-METHYLOXAZOL-2-YL)-2-(2'"-THIENYL)PYRIMIDINE]
600	CCc1nc(NN2C(=O)C=C(C)C2=O)ncc1C(=O)c1ccccc1 [Example 101, 5-BENZOYL 2-[N-(1'-AMINOCITRACONAMIDO)]-4-ETHYLPYRIMIDINE]
1700	CCOC(=O)c1cnc(N(C)N2C(=O)C=C(C)C2=O)nc1-c1nccs1 [Example 106, ETHYL 2-[N-(1'-AMINOCITRACONAMIDO)-N-METHYL]-4-(2'-THIAZOLYL)PYRIMIDINE-5-CARBOXYLATE]
20	CCOC(=O)c1cnc(-c2cccs2)nc1NN1C(=O)C=C(C)C1=O [Example 122, ETHYL 4-[N-(1'-AMINOCITRACONAMIDO)]-2-(2'-THIENYL)-PYRIMIDINE-5-CARBOXYLATE]
8000	CCOC(=O)c1cnc(-c2cccc([N+](=O)[O-])c2)nc1NN1C(=O)C=C(C)C1=O [Example 120, ETHYL 4-[N-(1'-AMINOCITRACONAMIDO)]-2-(3'-NITROPHENYL)-PYRIMIDINE-5-CARBOXYLATE]

Same assay, conditions: average of NFκB and AP-1 assays, read-out: ICm (average of the measurements obtained from the NFκB and AP-1 assays)

IC50 [nM]	Compound
120	4-[N-(1'-AMINOCITRACONAMIDO)]-5-(N-METHYL TETRAZOLYL)-2-(2"-THIENYL)PYRIMIDINE [Example 135]
